Where two headings read alike, the source gives them in different places.
What was measured:
[1] = target: ErbB2 insYVMA (HER2-YVMA, SEQ ID NO: 2) (Homo sapiens, UniProt P04626, INS775YVMA/P1170A); assay: biochemical; settings: ErbB2 insYVMA enzyme assay
ErbB2 WT = ErbB2 WT (Homo sapiens (Human), UniProt P04626); assay: ErbB enzyme assay (CisBio HTRF KinEASE-TK), Assay 2; assay type: biochemical
How it was run: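 Readout is HTRF KinEASE-TK, using Sa-XL665 and cryptate antibody for 1 h at 22 °C, as percent of control between DMSO-only (100) and pre-quenched (0) reactions. The kinase reaction runs 30 min at 22 °C with 1 mM ATP and 250 nM biotinylated TK substrate, in HEPES pH 7.4 with MgCl2 and 2% DMSO.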

EGFR = EGFR (Homo sapiens (Human), UniProt P00533); assay: ErbB enzyme assay (CisBio HTRF KinEASE-TK), Assay 3; assay type: biochemical
How it was run: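 Using a time-resolved FRET read-out, tyrosine phosphorylation of 250 nM biotin substrate at 1 mM ATP (pH 7.4, 10 mM MgCl2, 2% DMSO, 22 °C, 30 min) was quantified against DMSO and pre-quenched controls; IC50 taken at 50% of control.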

[2] = target: ErbB2 with Exon 20 YVMA insertion (HER2-YVMA) (Homo sapiens (Human), UniProt P04626, INS775YVMA); assay: Cellular phosphorylation assay, constitutive ErbB2 phosphorylation (Y1196) in engineered NIH 3T3 cells, Assay 4; assay type: cell-based
How it was run: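 In-cell Western in NIH 3T3 cells carrying ErbB2 exon 20 YVMA insertion, with no ligand stimulation. One hour compound exposure at 37 °C before fixation and anti-pY1196 plus GAPDH staining with dual-wavelength fluorescence. IC50 derived after GAPDH normalization.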

EGFR wild type (EGFR WT) = EGFR wild type (EGFR WT) (Homo sapiens (Human), UniProt P00533); assay: Cellular phosphorylation assay, EGF-stimulated EGFR phosphorylation in engineered NIH 3T3 cells, Phospho-EGFR DuoSet IC ELISA, Assay 5; assay type: cell-based
How it was run: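 Phospho-EGFR ELISA on lysates of engineered NIH 3T3 EGFR WT cells, IC50 derived from concentration curves. Cells plated at 20,000/well overnight, given compound dilutions 1 h at 37 °C, then rEGF 100 ng/ml for a further 10 min before lysis.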

MDR1 (P-gp) [3] = target: T1, MDR1 (P-gp) (Homo sapiens (Human), UniProt P08183); settings: pig, LLC-PK1, 2 h, 1 μM
Experimental: (§1) Both MDR1 transfected LLC-PK1 (Assay 6) and MDR1 transfected MDCKII canine Mdr1 knockout cells (Assay 7) were cultured and plated according to manufacturer's recommendations with the exception that the passage media for the MDR1 transfected LLC-PK1 cell line contained only 2% fetal bovine serum so as to extend passage time out to seven days.
(§2) Both positive and negative controls were used to assess functionality of P-gp or BCRP efflux in the assays. Stock solutions for assay controls and the test article were prepared in DMSO for final test concentration of 1 μM. Final organic concentration in the assay was 1%. All dosing solutions contained 10 μM lucifer yellow to monitor MDCKII cell monolayer integrity.
(§3) For the apical to basolateral determination (A to B), 75 μL of the test article in transport buffer were added to the apical side of the individual transwells and 250 μL of basolateral media, without compound or lucifer yellow, were added to each well. For the basolateral to apical determination (B to A), 250 μL of test article in transport buffer were added to each well and 75 μL transport buffer, without compound or lucifer yellow, were added to each transwell. All tests were performed in triplicate, and each compound was tested for both apical to basolateral and basolateral to apical transport. The plates were incubated for 2 hours on a Lab-Line Instruments Titer Orbital Shaker (VWR, West Chester, PA) at 50 rpm and 37° C. with 5% CO2. All culture plates were removed from the incubator, 50 μL of media were removed from the apical and basolateral portion of each well, and added to 150 μL of 1 μM labetalol in 2:1 acetonitrile (ACN): H2O, v/v.
(§4) The plates were read using a Molecular Devices (Sunnyvale, CA) Gemini Fluorometer to evaluate the lucifer yellow concentrations at excitation/emission wavelengths of 425/535 nm. These values were accepted when found to be below 2% for apical to basolateral and 5% basolateral to apical flux across the MDR1-transfected LLC-PK1 or BCRP-transfected MDCKII cell monolayers. The plates were sealed, and the contents of each well analyzed by LC MS/MS. The compound concentrations were determined from the ratio of the peak areas of the compound to the internal standard (labetalol) in comparison to the dosing solution.
(§5) A MDS Sciex API 4000 (Applied Biosystems, Foster City, CA) mass spectrometer was used for detection of the analytes in the ion spray positive mode. Analyte responses were measured by multiple reaction monitoring (“MRM”) of transitions unique to each compound (the protonated precursor ion and selected product ions for each test article and m/z 329 to m/z 162 for labetalol, the internal standard.
(§6) The total run time, including re-equilibration, for a single injection was 1.2 minutes. […] The total run time, including re-equilibration, for a single injection was 0.61 minutes.
(§7) An efflux ratio is calculated from the mean apical to basolateral (A-B) Papp data and basolateral to apical (B-A) Papp data: Efflux ratio=Papp(B−A)/Papp(A−B)

MDR1 (P-gp) [4] = target: T1, MDR1 (P-gp); settings: dog, MDCK-MDR1, 2 h, 1 μM
Experimental: as §1, §2, §3, §4, §5, §6, §7

BCRP [5] = target: T2, BCRP (Homo sapiens (Human), UniProt Q9UNQ0); settings: dog, 2 h, 1 μM
BCRP [6] = target: T2, BCRP; assay: BCRP transfected MDCKII permeability/efflux, Assay 8; assay type: in vitro ADME; settings: dog, efflux ratio Papp(B-A)/Papp(A-B), read-out: Assay 8 Pe Ratio
Experimental: BCRP transfected MDCKII cells (Assay 8) and BCRP transfected MDCKII canine Mdr1 knockout cells (Assay 9) were cultured and plated according to manufacturer's recommendations.
as §2, §3
The plates were read using a Molecular Devices (Sunnyvale, CA) Gemini Fluorometer to evaluate the lucifer yellow concentrations at excitation/emission wavelengths of 425/535 nm. […] The plates were sealed, and the contents of each well analyzed by LC MS/MS. The compound concentrations were determined from the ratio of the peak areas of the compound to the internal standard (labetalol) in comparison to the dosing solution.
as §5, §6, §7

MDR1 (P-gp) [7] = target: T1, MDR1 (P-gp); assay: MDR1 transfected LLC-PK1 permeability/efflux, Assay 6; settings: pig, LLC-PK1, Assay 6 Pe Ratio, efflux ratio Papp(B-A)/Papp(A-B), MDR1 transfected LLC-PK1
Experimental: as §1, §2, §3, §4, §5, §6, §7

Chain of ErbB2 WT (P04626 23-1255): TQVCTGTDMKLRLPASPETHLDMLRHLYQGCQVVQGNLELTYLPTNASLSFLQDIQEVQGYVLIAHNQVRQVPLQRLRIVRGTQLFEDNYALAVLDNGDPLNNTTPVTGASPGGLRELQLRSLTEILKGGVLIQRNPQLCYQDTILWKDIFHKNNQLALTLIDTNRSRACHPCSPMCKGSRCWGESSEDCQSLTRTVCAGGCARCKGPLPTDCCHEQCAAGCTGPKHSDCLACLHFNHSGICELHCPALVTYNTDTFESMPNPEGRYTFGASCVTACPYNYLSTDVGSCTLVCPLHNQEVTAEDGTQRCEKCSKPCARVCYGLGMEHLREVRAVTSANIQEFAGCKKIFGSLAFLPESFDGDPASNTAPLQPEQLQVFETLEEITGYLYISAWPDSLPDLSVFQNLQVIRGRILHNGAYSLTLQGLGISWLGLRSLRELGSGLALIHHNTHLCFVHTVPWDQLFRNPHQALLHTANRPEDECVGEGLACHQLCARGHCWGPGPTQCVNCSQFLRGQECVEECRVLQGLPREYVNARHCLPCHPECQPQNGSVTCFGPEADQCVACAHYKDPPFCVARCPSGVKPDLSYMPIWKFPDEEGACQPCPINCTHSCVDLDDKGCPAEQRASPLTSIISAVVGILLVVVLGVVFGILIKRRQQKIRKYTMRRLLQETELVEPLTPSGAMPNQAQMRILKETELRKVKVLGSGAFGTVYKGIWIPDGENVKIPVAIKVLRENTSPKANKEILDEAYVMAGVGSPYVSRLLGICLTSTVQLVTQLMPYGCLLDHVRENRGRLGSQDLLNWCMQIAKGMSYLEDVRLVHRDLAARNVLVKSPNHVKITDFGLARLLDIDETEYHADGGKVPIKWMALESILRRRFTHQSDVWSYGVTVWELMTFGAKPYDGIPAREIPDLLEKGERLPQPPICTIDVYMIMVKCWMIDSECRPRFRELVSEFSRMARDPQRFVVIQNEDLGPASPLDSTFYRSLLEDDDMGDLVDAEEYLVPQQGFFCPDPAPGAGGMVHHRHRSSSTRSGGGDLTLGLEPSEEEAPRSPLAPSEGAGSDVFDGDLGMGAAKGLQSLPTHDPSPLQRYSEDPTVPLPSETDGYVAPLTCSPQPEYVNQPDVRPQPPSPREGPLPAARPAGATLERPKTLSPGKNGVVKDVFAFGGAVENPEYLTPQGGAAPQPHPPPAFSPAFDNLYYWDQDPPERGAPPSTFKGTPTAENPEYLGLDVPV
T2 sequence (Q9UNQ0 whole entry): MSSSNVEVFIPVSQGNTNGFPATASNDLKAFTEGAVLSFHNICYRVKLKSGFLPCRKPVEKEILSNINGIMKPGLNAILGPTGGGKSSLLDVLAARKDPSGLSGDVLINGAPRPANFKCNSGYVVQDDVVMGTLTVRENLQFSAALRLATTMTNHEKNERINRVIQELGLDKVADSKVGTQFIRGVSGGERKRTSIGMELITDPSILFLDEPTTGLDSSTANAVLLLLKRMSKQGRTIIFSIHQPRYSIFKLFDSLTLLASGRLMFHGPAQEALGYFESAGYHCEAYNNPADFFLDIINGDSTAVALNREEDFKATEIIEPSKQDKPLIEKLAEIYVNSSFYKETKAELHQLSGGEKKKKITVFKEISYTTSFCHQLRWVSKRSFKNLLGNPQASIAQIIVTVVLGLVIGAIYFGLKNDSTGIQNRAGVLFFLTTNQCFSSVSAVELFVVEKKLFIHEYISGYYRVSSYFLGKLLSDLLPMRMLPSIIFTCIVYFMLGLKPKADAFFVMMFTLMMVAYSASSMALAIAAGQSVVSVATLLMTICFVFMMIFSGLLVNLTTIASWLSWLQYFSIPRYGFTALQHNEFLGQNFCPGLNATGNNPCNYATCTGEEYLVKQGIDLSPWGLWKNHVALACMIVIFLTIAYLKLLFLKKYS
Chain of EGFR wild type (EGFR WT) (P00533 25-1210): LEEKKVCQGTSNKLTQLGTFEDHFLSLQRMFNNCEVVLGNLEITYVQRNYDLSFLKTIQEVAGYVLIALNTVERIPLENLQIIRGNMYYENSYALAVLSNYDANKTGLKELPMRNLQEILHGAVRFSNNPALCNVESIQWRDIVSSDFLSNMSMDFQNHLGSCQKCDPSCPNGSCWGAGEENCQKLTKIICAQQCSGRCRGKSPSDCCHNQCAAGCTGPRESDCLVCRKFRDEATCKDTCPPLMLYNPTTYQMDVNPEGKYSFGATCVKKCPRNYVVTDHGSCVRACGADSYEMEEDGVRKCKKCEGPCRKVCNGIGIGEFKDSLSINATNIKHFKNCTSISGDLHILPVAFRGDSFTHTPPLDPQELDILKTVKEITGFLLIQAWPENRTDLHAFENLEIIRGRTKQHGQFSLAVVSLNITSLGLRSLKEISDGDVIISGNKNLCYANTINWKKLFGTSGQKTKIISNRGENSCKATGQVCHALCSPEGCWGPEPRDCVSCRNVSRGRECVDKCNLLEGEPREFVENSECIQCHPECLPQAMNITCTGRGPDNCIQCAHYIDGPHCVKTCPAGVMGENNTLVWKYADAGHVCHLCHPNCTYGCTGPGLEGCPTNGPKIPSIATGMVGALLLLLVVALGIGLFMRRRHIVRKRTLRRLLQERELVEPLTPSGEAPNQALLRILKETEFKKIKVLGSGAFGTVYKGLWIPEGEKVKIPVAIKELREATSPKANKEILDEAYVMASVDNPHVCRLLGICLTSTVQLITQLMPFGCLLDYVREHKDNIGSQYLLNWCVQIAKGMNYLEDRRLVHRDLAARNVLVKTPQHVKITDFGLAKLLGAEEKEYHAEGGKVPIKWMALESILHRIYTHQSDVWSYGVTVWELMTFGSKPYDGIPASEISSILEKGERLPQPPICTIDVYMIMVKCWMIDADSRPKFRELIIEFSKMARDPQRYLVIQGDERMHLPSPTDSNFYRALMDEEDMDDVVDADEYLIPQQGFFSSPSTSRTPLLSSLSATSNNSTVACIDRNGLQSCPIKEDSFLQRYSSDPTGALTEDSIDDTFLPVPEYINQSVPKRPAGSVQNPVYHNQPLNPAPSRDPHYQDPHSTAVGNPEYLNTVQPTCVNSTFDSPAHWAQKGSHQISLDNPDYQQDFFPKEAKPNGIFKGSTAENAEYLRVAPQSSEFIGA
Chain of EGFR (P00533 25-1210): as above

Row | SMILES | IC50 ([1]; read-out: Assay 1 IC50) [nM] | IC50 (ErbB2 WT) [nM] | IC50 (EGFR) [nM] | IC50 [2] [nM] | IC50 (EGFR wild type (EGFR WT)) [nM] | Assay 6 Pe Ratio (MDR1 (P-gp) [3]) | Assay 7 Pe Ratio (MDR1 (P-gp) [4]) | Assay 9 Pe Ratio (BCRP [5]) | efflux ratio at 2 h, 1 μM (BCRP [6]) | efflux ratio at 2 h, 1 μM (MDR1 (P-gp) [7]) | IC50 ([1]; Assay 1 IC50 (nM)) [nM]
1 | Cc1cc(Nc2ncnc3cnc(N4CCC45CCOC5)nc23)ccc1Oc1ccc2c(c1)ncn2C (racemic) [Example 111, rac-(R)—N-(3-methyl-4-((1-methyl-1H-benzo[c]imidazol-5-yl)oxy)phenyl)-6-(6-oxa-1-azaspiro[3.4]octan-1-yl)pyrimido[5,4-d]pyrimidin-4-amine] | 28.2 | 24 | 3530 | 13 | 5000 | 1.3 | 1.7 | 1.6 | – | – | –
2 | Cc1cc(Nc2ncnc3cnc(N(C)C)nc23)ccc1Oc1ccc2scnc2c1 [Example 271] | 42.2 | 145 | 1260 | 30.9 | 3080 | – | – | – | 0.9 | 1.8 | –
3 | Cc1cc(Nc2ncnc3cnc(N4[C@H]5CC[C@@H]4[C@H](O)C5)nc23)ccc1Oc1ccc2c(c1)ncn2C (racemic) [Example 104, ±(1R,2R,4S)-7-(8-((3-methyl-4-((1-methyl-1H-benzo[d]imidazol-5-yl)oxy)phenyl)amino)pyrimido[5,4-d]pyrimidin-2-yl)-7-azabicyclo[2.2.1]heptan-2-ol] | 18.6 | 18.2 | 4680 | 31.8 | 5000 | – | 1.4 | 16.0 | – | – | –
4 | Cc1cc(Nc2ncnc3cnc(N(C)C)nc23)ccc1Oc1ccc2csnc2c1 [Example 49, N8-(4-(benzo[c]isothiazol-6-yloxy)-3-methylphenyl)-N2,N2-dimethylpyrimido[5,4-d]pyrimidine-2,8-diamine 2,2,2-trifluoroacetate] | 55.3 | 241 | 2250 | 132 | ≥ 5000 | – | – | – | 5.1 | 1.7 | –
5 | Cc1cc(Nc2ncnc3cnc(N4[C@H]5CC[C@@H]4[C@@H](O)C5)nc23)ccc1Oc1ccc2c(c1)ncn2C (racemic) [Example 105, ±(1R,2S,4S)-7-(8-((3-methyl-4-((1-methyl-1H-benzo[d]imidazol-5-yl)oxy)phenyl)amino)pyrimido[5,4-d]pyrimidin-2-yl)-7-azabicyclo[2.2.1]heptan-2-ol] | 56.7 | 48.5 | 10000 | 39 | 5000 | – | 2.0 | 8.6 | – | – | –
6 | Cc1cc(Nc2ncnc3cnc(N4CCOCC4)nc23)ccc1Oc1ccc2scnc2c1.O=C(O)C(F)(F)F [Example 82, N-(4-(benzo[d]thiazol-5-yloxy)-3-methylphenyl)-6-morpholinopyrimido[5,4-d]pyrimidin-4-amine 2,2,2-trifluoroacetate] | – | 204 | 1220 | 54.7 | ≥ 5000 | – | – | – | 1 | 1.3 | 47

Reference: US11834453B2, “Substituted pyrimido[5,4-d]pyrimidines as HER2 inhibitors” (Array BioPharma Inc., priority 2020, dated 2023)
